In patent US3935255A, “Phenylacetic acid derivatives” (Laboratoires Jacques Logeais, priority 1973, dated 1976):
Where two headings read alike, the source gives them in different places.

Tests used:
[1] = system: fever induced by injection of barm; assay: Antipyretic action against fever induced by injection of barm, in rats; format: in vivo; conditions: p.o.
Description: (§1) Said properties were evidenced in animals by means of conventional pharmacological tests.
Antipyretic action, against fever induced by injection of barm, in rats.

[2] = Koster test (analgesic action); format: in vivo; conditions: po
Description: as §1
Analgesic action: Koster test (cf. KOSTER and ANDERSON. Feder. Proceed., 1959, 18, 412)

[3] = system: carrageenin-induced edema; assay: Carrageenin-induced edema in rats (anti-inflammatory action); format: in vivo; conditions: Rattus norvegicus, po
Description: as §1
(§2) Anti-inflammatory action:
carrageenin-induced edema in rats (cf. WINTER, RISLEY and MUSS, Proc. Soc. Exp. Biol. Med., 1962, 111, 544),

[4] = LD50 (acute toxicity); conditions: in vivo
[5] = system: adjuvant-induced polyarthritis; assay: Adjuvant-induced polyarthritis in rats (anti-inflammatory action); format: in vivo; conditions: Rattus norvegicus, 336 h, p.o., oral dosage which decreases by at least 50% the manifestations of arthritis within 14 days
Description: as §1, §2
adjuvant-induced polyarthritis in rats, determination of the oral dosage (mg/kg/day) which decreases by at least 50% the manifestations of arthritis within 14 days.

[6] = system: ultraviolet-induced erythema; assay: Ultraviolet-induced erythema in guinea-pigs (anti-inflammatory action); format: in vivo; conditions: Cavia porcellus, po, read-out: UV-induced erythema ED50
Description: as §1, §2
ultraviolet-induced erythema in guinea-pigs (cf. WINTER, Arch. Int. Pharmaco., 1958, 116, 261),

SMILES | Antipyretic action [1] | ED50 [2] | ED40 [3] | LD50 ([4]; ip, I.P., read-out: LD50 I.P.) | LD50 ([4]; po, P.O., read-out: LD50 P.O.) | ED50 [5] | ED50 [6]
CC(C(=O)O)c1ccc(C2=CC(=NO)CCC2)cc1 (stereo not drawn) [Example 1, 2-[4-(3'-Hydroxyimino-cyclohexen-1'-yl)-phenyl]propionic acid] | 30 mg·kg | 30 to 50 mg/kg | 2.2 mg/kg | > 100 mg/kg | > 100 mg/kg |  | 
CC(C(=O)O)c1ccc(C2CCCC(=NO)C2)cc1 (stereo not drawn) [Example 2, 2-[4-(3'-Hydroxyimino-cyclohexyl)phenyl]propionic acid] | 3 mg·kg | 4.5 mg/kg | 0.25 mg/kg | > 200 mg/kg | > 200 mg/kg | 0.9 mg/kg | 2 mg/kg
